Results taken from ChEMBL document CHEMBL3813611, “Antiprotozoal activity of bicycles featuring a dimethylamino group at their bridgehead” (Bioorg Med Chem, 2016).

How the values were obtained:
[1] = tested on: Trypanosoma brucei rhodesiense; assay: Antitrypanosomal activity against Trypanosoma brucei rhodesiense STIB 900 bloodstream forms after 72 hrs by Alamar blue assay; format: functional, organism-based; details: STIB 900, 72 h
[2] = Selectivity index, ratio of IC50 for rat L6 cells to IC50 for Trypanosoma brucei rhodesiense STIB 900 bloodstream forms; format: toxicity, cell-based; details: read-out: Ratio IC50
L6 = assay: Cytotoxicity against rat L6 cells assessed as reduction in cell viability after 72 hrs by Alamar blue assay; format: cell-based; details: L6, 72 h
Plasmodium falciparum = assay: Antiplasmodial activity against chloroquine/pyrimethamine resistant Plasmodium falciparum K1 infected in human red blood cells after 48 hrs by [3H]hypoxanthine incorporation assay; format: functional, organism-based
[3] = Selectivity index, ratio of IC50 for rat L6 cells to IC50 for chloroquine/pyrimethamine resistant Plasmodium falciparum K1 infected in human red blood cells; format: toxicity, cell-based; details: read-out: Ratio IC50

SMILES | IC50 [1] [µM] | selectivity ratio [2] | IC50 (L6) [µM] | IC50 (Plasmodium falciparum) [µM] | selectivity ratio [3]
CCN(CC)CCC(=O)N1CC2C(c3ccccc3)CC(N(C)C)(CC2c2ccccc2)C1 (racemic) | 1.46 | 20.6 | 15.4 | 0.39 | 39.6
CN(C)C12CC(c3ccccc3)C(CN(CCN3CCCC3)C1)C(c1ccccc1)C2 (racemic) | 0.54 | 10.3 | 5.58 | 0.29 | 19.2
CN(C)C12CC(c3ccccc3)C(CN(CCN3CCCCC3)C1)C(c1ccccc1)C2 (racemic) | 0.12 | 24.3 | 2.92 | 0.09 | 32.4
CN(C)C12CCN(CCN3CCCCC3)C(C(c3ccccc3)C1)C(c1ccccc1)C2 (racemic) | 2.62 | 51.6 | 135 | 0.87 | 155
CCN(CC)CC(=O)N1CCC2(N(C)C)CC(c3ccccc3)C1C(c1ccccc1)C2 (stereo not drawn) | 5.21 | 17.2 | 89.6 | 1.3 | 68.9
CCN(CC)CCCN1CC2C(c3ccccc3)CC(N(C)C)(CC2c2ccccc2)C1 (racemic) | 0.46 | 7.11 | 3.27 | 0.065 | 50.3
CN1CCN(CCC(=O)N2CC3C(c4ccccc4)CC(N(C)C)(CC3c3ccccc3)C2)CC1 (racemic) | 1.52 | 8.54 | 13 | 0.18 | 72.1
CN(C)C12CCN(C(=O)CN3CCCCC3)C(C(c3ccccc3)C1)C(c1ccccc1)C2 (stereo not drawn) | 9.47 | 14.9 | 141 | 1.72 | 82.2
CN(C)C12CC(NC(=O)CCN3CCCCC3)C(C(c3ccccc3)C1)C(c1ccccc1)C2 (racemic) | 1.49 | 5.27 | 7.85 | 0.69 | 11.4
CN1CCN(CCCN2CC3C(c4ccccc4)CC(N(C)C)(CC3c3ccccc3)C2)CC1 (racemic) | 0.11 | 1.82 | 0.2 | 0.15 | 1.33
CN(C)C12CC(c3ccccc3)C(CN(C(=O)CCN3CCCC3)C1)C(c1ccccc1)C2 (racemic) | 1.57 | 7.46 | 11.7 | 0.22 | 53.3
C[C@@H]1CC[C@H]2[C@@H](C)C(=O)O[C@@H]3O[C@@]4(C)CC[C@@H]1[C@]32OO4 [ARTEMISININ] |  |  |  | 0.0064 | 70400
CN1CCN(CCN2CC3C(c4ccccc4)CC(N(C)C)(CC3c3ccccc3)C2)CC1 (racemic) | 0.27 | 19.5 | 5.26 | 0.25 | 21
Nc1nc(N)nc(Nc2ccc([As]3SCC(CO)S3)cc2)n1 (stereo not drawn) [MELARSOPROL] |  | 2000 |  |  | 
CN(C)C12CC(c3ccccc3)C(CN(CCCN3CCCC3)C1)C(c1ccccc1)C2 (racemic) | 0.16 | 9.69 | 1.55 | 0.15 | 10.3
CN1CCN(CC(=O)N2CC3C(c4ccccc4)CC(N(C)C)(CC3c3ccccc3)C2)CC1 (racemic) | 1.47 | 6.29 | 9.25 | 0.43 | 21.5
CN(C)C12CC(c3ccccc3)C(CN(C(=O)CN3CCCC3)C1)C(c1ccccc1)C2 (racemic) | 2.16 | 5.82 | 12.6 | 0.24 | 52.4
CN(C)C12CC(NC(=O)CN3CCCCC3)C(C(c3ccccc3)C1)C(c1ccccc1)C2 (racemic) | 0.48 | 14.9 | 7.16 | 0.11 | 65.1
CN(C)C12CC(c3ccccc3)C(CN(C(=O)CCN3CCCCC3)C1)C(c1ccccc1)C2 (racemic) | 1.23 | 10.1 | 12.4 | 0.052 | 238
CN(C)C12CC(c3ccccc3)C(CN(C(=O)CN3CCCCC3)C1)C(c1ccccc1)C2 (racemic) | 2.4 | 5.05 | 12.1 | 0.4 | 30.3
CN(C)C12CC(c3ccccc3)C(CN(CCCN3CCCCC3)C1)C(c1ccccc1)C2 (racemic) | 0.15 | 11.7 | 1.75 | 0.19 | 9.21
CCN(CC)CCN1CCC2(N(C)C)CC(c3ccccc3)C1C(c1ccccc1)C2 (racemic) | 1.79 | 56.5 | 101 | 0.71 | 142
